The record followed here is patent US12697325B2 (TENNOR THERAPEUTICS (SUZHOU) LIMITED, priority 2021, dated 2026).

In the assay the test system is Acinetobacter baumannii clinical strains. Description: Information of drug resistance of 10 clinical strains. Format: cell-based. Further details: key: S: Drug Susceptible; I: Drug Intermediate; R: Drug Resistant.

As for `NCC[C@H](O)C(=O)N[C@@H]1C[C@H](N)[C@@H](O[C@H]2O[C@H](CN)[C@@H](O)[C@H](O)[C@H]2O)[C@H](O)[C@H]1O[C@H]1O[C@H](CO)[C@@H](O)[C@H](N)[C@H]1O` [Amikacin], the Drug resistance result is recorded as “R” (strain TNP041702); “R” (strain TNP041703); “R” (strain TNP041704); “R” (strain TNP041705); “S” (strain TNP041706); “R” (strain TNP041707). Further, the Drug resistance result (strain TNP041708) is given as “S”, the Drug resistance entry (strain TNP041709) is recorded as “R”, the Drug resistance result (strain TNP041710) was “R” and the Drug resistance entry (strain TNP041711) is on record as “R”.

Turning to `Cc1nnc(SCC2=C(C(=O)O)N3C(=O)[C@@H](NC(=O)Cn4cnnn4)[C@H]3SC2)s1` [Cefazolin], the Drug resistance entry is, setting by setting: (strain TNP041702) “R”; (strain TNP041703) “R”; (strain TNP041704) “R”; (strain TNP041705) “R”; (strain TNP041706) “R”; (strain TNP041707) “R”. Moreover, the Drug resistance entry runs as follows: (strain TNP041708) “R”; (strain TNP041709) “R”; (strain TNP041710) “R”; (strain TNP041711) “R”.

Regarding `CO/N=C(\C(=O)N[C@@H]1C(=O)N2C(C(=O)[O-])=C(C[N+]3(C)CCCC3)CS[C@H]12)c1csc(N)n1` [Cefepime], the Drug resistance entry reads like this: (strain TNP041702) “R”; (strain TNP041703) “R”; (strain TNP041704) “R”; (strain TNP041705) “R”; (strain TNP041706) “R”; (strain TNP041707) “R”. Besides, the Drug resistance entry by setting is: (strain TNP041708) “R”; (strain TNP041709) “R”; (strain TNP041710) “R”; (strain TNP041711) “R”.

In the case of `CO/N=C(\C(=O)N[C@@H]1C(=O)N2C(C(=O)O)=C(COC(C)=O)CS[C@H]12)c1csc(N)n1` [Cefotaxime], the Drug resistance result reads like this: (strain TNP041702) “R”; (strain TNP041703) “R”; (strain TNP041704) “R”; (strain TNP041705) “R”; (strain TNP041706) “R”; (strain TNP041707) “R”. Further, the Drug resistance result (strain TNP041708) is recorded as “R”, the Drug resistance result (strain TNP041709) was “R”, the Drug resistance result (strain TNP041710) is “R” and the Drug resistance result (strain TNP041711) is reported as “R”.

Turning to `CC(C)(O/N=C(\C(=O)N[C@@H]1C(=O)N2C(C(=O)[O-])=C(C[n+]3ccccc3)CS[C@H]12)c1csc(N)n1)C(=O)O` [Ceftazidime], the Drug resistance entry is given as “R” (strain TNP041702); “R” (strain TNP041703); “R” (strain TNP041704); “R” (strain TNP041705); “R” (strain TNP041706); “R” (strain TNP041707). In addition, the Drug resistance entry by setting is: (strain TNP041708) “R”; (strain TNP041709) “R”; (strain TNP041710) “R”; (strain TNP041711) “R”.

Turning to `CO/N=C(\C(=O)N[C@@H]1C(=O)N2C(C(=O)O)=C(COC(N)=O)CS[C@H]12)c1ccco1` [Cefuroxime], the Drug resistance entry reads like this: (strain TNP041702) “R”; (strain TNP041703) “R”; (strain TNP041704) “R”; (strain TNP041705) “R”; (strain TNP041706) “R”; (strain TNP041707) “R”. In addition, the Drug resistance result by setting is: (strain TNP041708) “R”; (strain TNP041709) “R”; (strain TNP041710) “R”; (strain TNP041711) “R”.

Take `C[C@@H](O)[C@H]1C(=O)N2C(C(=O)O)=C(SCCN=CN)C[C@H]12` [Imipenem]: the Drug resistance entry is “R” (strain TNP041702); “R” (strain TNP041703); “R” (strain TNP041704); “R” (strain TNP041705); “R” (strain TNP041706); “R” (strain TNP041707). Moreover, the Drug resistance entry is “R” (strain TNP041708), “R” (strain TNP041709), “R” (strain TNP041710) and “R” (strain TNP041711).

As to `C[C@@H](O)[C@H]1C(=O)N2C(C(=O)O)=C(S[C@@H]3CN[C@H](C(=O)N(C)C)C3)[C@H](C)[C@H]12` [Meropenem], the Drug resistance entry (strain TNP041702) is “R”; the Drug resistance result (strain TNP041703) was “R”; the Drug resistance entry (strain TNP041704) was “R”; the Drug resistance entry (strain TNP041705) is on record as “R”; the Drug resistance result (strain TNP041706) is given as “R”; the Drug resistance result (strain TNP041707) is listed as “R”. The Drug resistance result is reported as “R” (strain TNP041708), “R” (strain TNP041709), “R” (strain TNP041710) and “R” (strain TNP041711).

For `CCN1CCN(C(=O)N[C@@H](C(=O)N[C@@H]2C(=O)N3[C@@H]2SC(C)(C)[C@@H]3C(=O)O)c2ccccc2)C(=O)C1=O` [Piperacillin], the Drug resistance result runs as follows: (strain TNP041702) “R”; (strain TNP041703) “R”; (strain TNP041704) “R”; (strain TNP041705) “R”; (strain TNP041706) “R”; (strain TNP041707) “R”. Further, the Drug resistance entry reads like this: (strain TNP041708) “R”; (strain TNP041709) “R”; (strain TNP041710) “R”; (strain TNP041711) “R”.

As for Gentamicin, the Drug resistance result is, setting by setting: (strain TNP041702) “R”; (strain TNP041703) “R”; (strain TNP041704) “R”; (strain TNP041705) “R”; (strain TNP041706) “S”; (strain TNP041707) “R”. In addition, the Drug resistance entry is, setting by setting: (strain TNP041708) “R”; (strain TNP041709) “R”; (strain TNP041710) “R”; (strain TNP041711) “R”.
